In ChEMBL document CHEMBL5096217, “Design, synthesis and biological evaluation of novel 4-aminopiperidine derivatives as SMO/ERK dual inhibitors” (Bioorg Med Chem, 2022):

Legend:
[1] = target: T1, Mitogen-activated protein kinase 1 (Homo sapiens, UniProt P28482); experiment: Inhibition of ERK2 (unknown origin) using kinase substrate 8 at 100 nM incubated for 40 mins in presence of ATP by mobility shift assay
Protein smoothened = Protein smoothened (Mus musculus, UniProt P56726); experiment: Inhibition of SMO in mouse 3T3/HH FlashII-7 cells incubated for 36 hrs in presence of SHH by Gli-luciferase reporter assay; assay type: cell-based
[2] = target: T1, Mitogen-activated protein kinase 1; experiment: Inhibition of ERK2 (unknown origin) using kinase substrate 8 incubated for 40 mins in presence of ATP by mobility shift assay
[3] = target: Protein smoothened (Mus musculus) (UniProt P56726); experiment: Inhibition of SMO in mouse 3T3/HH FlashII-7 cells at 100 nM incubated for 36 hrs in presence of SHH by Gli-luciferase reporter assay; assay type: cell-based
[4] = Antiproliferative activity against human RBE cells overexpressing Hh/ERK pathway assessed as inhibition of cell growth incubated for 96 hrs by CCK8 assay; assay type: functional, cell-based
[5] = Antiproliferative activity against human RBE cells overexpressing Hh/ERK pathway assessed as inhibition of cell growth incubated for 96 hrs by CCK8 assay relative to SCH772984; assay type: functional

Sequence of Protein smoothened (Mus musculus) (P56726 whole entry): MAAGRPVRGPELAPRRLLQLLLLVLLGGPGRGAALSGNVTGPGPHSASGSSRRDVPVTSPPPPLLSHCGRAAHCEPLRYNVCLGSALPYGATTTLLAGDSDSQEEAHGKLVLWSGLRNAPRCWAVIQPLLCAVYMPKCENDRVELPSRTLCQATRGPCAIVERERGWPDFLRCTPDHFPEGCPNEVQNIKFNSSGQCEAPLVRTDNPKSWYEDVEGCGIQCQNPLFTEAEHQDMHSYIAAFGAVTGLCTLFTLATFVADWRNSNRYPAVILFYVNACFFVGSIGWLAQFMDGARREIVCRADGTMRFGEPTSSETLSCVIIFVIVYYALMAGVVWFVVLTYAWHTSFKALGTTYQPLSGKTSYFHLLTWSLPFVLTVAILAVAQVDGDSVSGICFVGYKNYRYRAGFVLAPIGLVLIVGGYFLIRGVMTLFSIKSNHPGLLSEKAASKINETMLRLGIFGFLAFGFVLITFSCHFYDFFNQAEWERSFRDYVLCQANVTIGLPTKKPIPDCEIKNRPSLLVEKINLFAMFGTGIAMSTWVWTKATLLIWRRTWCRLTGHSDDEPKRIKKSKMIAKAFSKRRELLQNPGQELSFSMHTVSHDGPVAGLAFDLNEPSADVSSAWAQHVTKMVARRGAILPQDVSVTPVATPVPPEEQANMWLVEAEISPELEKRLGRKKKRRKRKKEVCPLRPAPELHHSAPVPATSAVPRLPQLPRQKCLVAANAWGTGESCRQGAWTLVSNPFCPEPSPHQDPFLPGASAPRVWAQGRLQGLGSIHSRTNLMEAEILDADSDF
Sequence of Protein smoothened (P56726 whole entry): as above
T1 sequence (P28482 whole entry): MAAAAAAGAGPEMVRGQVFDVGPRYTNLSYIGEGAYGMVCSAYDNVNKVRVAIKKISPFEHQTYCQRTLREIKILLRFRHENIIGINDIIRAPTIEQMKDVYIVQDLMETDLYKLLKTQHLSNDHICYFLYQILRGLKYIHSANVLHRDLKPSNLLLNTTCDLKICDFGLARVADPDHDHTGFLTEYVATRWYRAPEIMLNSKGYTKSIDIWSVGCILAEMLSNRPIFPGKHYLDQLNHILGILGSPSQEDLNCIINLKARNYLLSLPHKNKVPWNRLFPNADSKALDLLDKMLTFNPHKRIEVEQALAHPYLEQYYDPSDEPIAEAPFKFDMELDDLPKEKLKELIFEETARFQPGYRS

Row | inhibition [1] [%] | IC50 (Protein smoothened) [nM] | IC50 [2] [nM] | inhibition [3] [%] | SMILES | IC50 [4] [nM] | fold change (FC) [5]
1 | 46 | 17.8 | – | – | Cc1c(-c2ccnn2C)nnc(N2CCC(NC(=O)Nc3ccc(Oc4nc(Nc5cnn(C)c5)ncc4Cl)cc3)CC2)c1C | – | –
2 | – | – | 3320 | 68.2 | Cc1c(-c2ccnn2C)nnc(N2CCC(NC(=O)c3ccc(NC(=O)c4ccnc(NC5CCOCC5)n4)cc3C(F)(F)F)CC2)c1C | – | –
3 | 84.2 | 155 | – | – | Cc1c(-c2ccnn2C)nnc(N2CCC(NC(=O)Nc3ccc(Sc4nc(NC5CCOCC5)ncc4C(F)(F)F)cc3)CC2)c1C | 1450 | 0.89
4 | – | 409 | 41 | – | Cc1c(-c2cnn(C)c2)nnc(N2CCC(NC(=O)Nc3ccc(Oc4nc(NC5CCOCC5)ncc4Cl)cc3)CC2)c1C | – | –
5 | – | – | 1320 | 90.4 | Cc1c(-c2ccnn2C)nnc(N2CCC(NC(=O)Nc3ccc(Oc4ccnc(NC5CCOCC5)n4)cc3)CC2)c1C | – | –
6 | 1.1 | – | – | – | Cc1c(-c2ccnn2C)nnc(N2CCC(NC(=O)Nc3ccc(Oc4nc(Nc5ccnn5C)ncc4Cl)cc3)CC2)c1C | – | –
7 | 60.7 | 150 | – | – | Cc1cnc(NC2CCOCC2)nc1Oc1ccc(NC(=O)NC2CCN(c3nnc(-c4ccnn4C)c(C)c3C)CC2)cc1 | – | –
8 | – | > 1000 | 164 | – | Cn1cc(-c2ccc(N3CCC(NC(=O)Nc4ccc(Oc5nc(NC6CCOCC6)ncc5Cl)cc4)CC3)nn2)cn1 | – | –
9 | 80.9 | – | – | 89.9 | Cc1c(-c2ccnn2C)nnc(N2CCC(NC(=O)Nc3ccc(Oc4nc(NC5CCOCC5)ncc4Cl)cc3)CC2)c1C | 12300 | 7.59
10 | 5.6 | – | – | – | Cc1c(-c2ccnn2C)nnc(N2CCC(NC(=O)Nc3ccc(Oc4nc(NC(C)C)ncc4Cl)cc3)CC2)c1C | – | –
11 | – | – | – | – | O=C(Nc1ccc2[nH]nc(-c3ccncc3)c2c1)[C@@H]1CCN(CC(=O)N2CCN(c3ccc(-c4ncccn4)cc3)CC2)C1 | 1630 | –
12 | 6.6 | – | – | – | Cc1c(-c2ccnn2C)nnc(N2CCC(NC(=O)Nc3ccc(Oc4nc(Nc5ccn(C)n5)ncc4Cl)cc3)CC2)c1C | – | –
13 | 91.2 | 17.6 | – | – | Cc1c(-c2ccnn2C)nnc(N2CCC(NC(=O)Nc3ccc(Sc4nc(NC5CCOCC5)ncc4Cl)cc3)CC2)c1C | 2170 | 1.33
14 | 36.9 | 63.9 | – | – | Cc1c(-c2ccnn2C)nnc(N2CCC(NC(=O)Nc3ccc(Nc4nc(NC5CCOCC5)ncc4Cl)cc3)CC2)c1C | – | –
15 | 46.4 | – | – | 68.5 | Cn1nccc1-c1ccc(N2CCC(NC(=O)Nc3ccc(Oc4nc(NC5CCOCC5)ncc4Cl)cc3)CC2)nn1 | – | –
16 | – | 1.18 | – | – | CN(C(=O)c1ccc(F)cc1C(F)(F)F)C1CCN(c2nnc(-c3ccnn3C)c3ccccc23)CC1 [TALADEGIB] | > 50000 | –
17 | 85 | 190 | – | – | Cc1c(-c2ccnn2C)nnc(N2CCC(NC(=O)Nc3ccc(Oc4nc(NC5CCOCC5)ncc4C(F)(F)F)cc3)CC2)c1C | – | –
